Assay results reported in article PMC13233288, “Spider venom peptides Ht1a and Gg1a are toxic to honeybee parasite Varroa destructor by topical application” (npj Drug Discovery, 2026).

Key:
V. destructor mites = test: Topical application of synthetic peptides and oxalic acid to V. destructor mites; type: in vivo, Varroa destructor; conditions: 3% oxalic acid, positive control
Protocol: An outline of the project discovery pipeline is presented in Supplementary Fig. 1. To identify varroacidal venom peptides, we screened venoms for activity against V. destructor by topical application. Topical tests were performed in several stages. First, whole venom was tested to determine mortality for V. destructor. Hit venoms were then subjected to several fractionation steps to isolate the active compounds. For the initial venom screen, a panel of 50 arthropod venoms (Table 1) were topically applied to V. destructor mites. Venoms were dissolved in 90% acetonitrile (v/v), and a 10 μg venom aliquot was applied per mite (n = 5 mites per venom). The dorsal plate of V. destructor mites (average mass 0.38 mg) was fixed to adhesive tape (ScotchTM 666 3 M; 19 × 32.9 mm, double sided) on microscope slides (ground edges 90° frosted end, 76 × 26 mm). A Nanoject II (Automatic Injector with Glass Capillaries, Drummond Cat.No. 3-000-205 A) was used for topical application of venom and control (90% acetonitrile) solutions. To accelerate solvent evaporation, the total volume of 483 nL was applied in seven aliquots of 69 nL each to the ventral plate of the mites between the posterior pair of legs. Each drop was allowed to dry before applying the next one, with the entire application procedure taking up to 1 h. Mite mortality was determined at various time intervals up to 48 h after the treatment using an Olympus stereomicroscope (SZX10/SZX2 Series). Initially, each mite was examined for movements of the legs, and immobile mites were stimulated with the tip of a wooden toothpick. Detection of static electricity by the mites, a few millimetres before the actual contact with the toothpick, was usually sufficient to trigger movement in mites that were still alive. […] At the later stage of the project, the slides with mites were placed into a self-constructed automated video monitoring system (using a USB camera) that employs an algorithm in OpenCV to subtract images from subsequent frames enabling the detection of changes in pixel intensity due to movements, for example of the extremities. Leg movements were stimulated with an air current applied over the mites at the time of image acquisition to determine mite mortality. The percentage of mite mortality for each venom was calculated at 2, 6 and 24 h, and adjusted by correcting for the mortality of the corresponding control group receiving only 90% acetonitrile.
The same procedure initially used for identifying varroacidal venoms was used for testing the topical activity of sHt1a and sGg1a. The peptides were dissolved in 0.5% Silwet L-77 (v/v), a silicone-based surfactant that is commonly used as a spreading agent for foliar sprays. 0.48 μg of peptide was topically applied to each mite, with n = 5 mites per treatment group. The activity of the sHt1a was confirmed using three cohorts of n = 5 mites, whereas the activity of sGg1a was confirmed using four cohorts of n = 5 mites. As a negative control, an equal volume of 0.5% Silwet (v/v) was topically applied (four cohorts of n = 5 mites), and 3% oxalic acid, a known varroacide used in commercial products[10] was used as positive control (eight cohorts of n = 5 mites). Mite mortality was recorded at 2-hourly intervals between 0 and 48 h after the treatment. For statistical analysis, mite survival data were plotted in Prism 10.0 (GraphPad Software, CA, USA), then a two-way ANOVA followed by Dunnett’s multiple comparisons test was performed, comparing the peptide and oxalic acid treatment against the respective 0.5% Silwet (v/v) control group data.

[1] = cited from earlier work
Text: (§1) A possible alternative solution for control of V. destructor is venom-derived acaricidal peptides. Venomous arachnids such as spiders and scorpions prey on arthropods, including other arachnids[17]–[19]. It is therefore unsurprising that the wide-spectrum insecticidal spider-venom peptide ω-hexatoxin-Hv1a (hereafter Hv1a) is also acaricidal. […] It therefore seems plausible that within the venoms of >53,000 extant spider[23] and >2,800 extant scorpion species, each comprising hundreds to thousands of p ...

honeybees = conditions: cited from earlier work
Text: as §1

mammals = conditions: cited from earlier work
Text: as §1

With `O=C(O)C(=O)O` [oxalic acid, reference compound] the “time to significant mortality” value (V. destructor mites; eight cohorts of n = 5 mites) was 2 h and the “survival of V. destructor” value (V. destructor mites; vs 0.5% Silwet group, two-way ANOVA, Dunnett) was “significantly reduced V. destructor survival”.

In the case of ω-hexatoxin-Hv1a, the acaricidal activity [1] is listed as “acaricidal”, the activity against honeybees (honeybees) is listed as “inactive” and the activity against mammals (mammals) is listed as “inactive”.
